From publication PMC5218480 (PLoS ONE, 2017) come the findings set out here.

The subject of the experiment is MV-4-11 cells. As to the kind of experiment: Gene expression microarray analysis (Affymetrix PrimeView) and GSEA. The class given is cell-based, human. Details: RFU PODN (11730768_x_at) / Fold change /veh PODN (11730768_x_at) / RFU LINC00158 (11744669_a_at) / Fold change /veh LINC00158 (11744669_a_at) / RFU DUSP10 (11751237_a_at) / Fold change /veh DUSP10 (11751237_a_at) / RFU ID3 (11757404_x_at) / Fold change /veh ID3 (11757404_x_at) / RFU PLEKHG5 (11737974_s_at) / Fold change /veh PLEKHG5 (11737974_s_at) / RFU LRRC4B (11730491_at) / Fold change /veh LRRC4B (11730491_at) / RFU GIMAP4 (11747438_a_at) / Fold change /veh GIMAP4 (11747438_a_at) / RFU KRT8 (11758183_x_at) / Fold change /veh KRT8 (11758183_x_at) / RFU CNN1 (11734310_a_at) / Fold change /veh CNN1 (11734310_a_at) / RFU VPS37D (11726825_at) / Fold change /veh VPS37D (11726825_at) / RFU C10orf10 (11716522_x_at) / Fold change /veh C10orf10 (11716522_x_at) / RFU KIR2DL2 /// KIR2DL4 /// KIR2DL5A /// KIR2DL5B /// KIR2DS1 /// KIR2DS2 /// KIR2DS3 /// KIR2DS4 /// KIR3DL3 /// KIR3DL3 /// KIR3DS1 (11738374_at) / Fold change /veh KIR2DL2 /// KIR2DL4 /// KIR2DL5A /// KIR2DL5B /// KIR2DS1 /// KIR2DS2 /// KIR2DS3 /// KIR2DS4 /// KIR3DL3 /// KIR3DL3 /// KIR3DS1 (11738374_at) / RFU C1QL1 (11718748_at) / Fold change /veh C1QL1 (11718748_at) / RFU TMPRSS4 (11747572_a_at) / Fold change /veh TMPRSS4 (11747572_a_at) / RFU HAMP (11756126_x_at) / Fold change /veh HAMP (11756126_x_at) / RFU RNFT2 (11725882_a_at) / Fold change /veh RNFT2 (11725882_a_at) / RFU NR4A2 (11747474_a_at) / Fold change /veh NR4A2 (11747474_a_at) / RFU ABCC12 (11746883_a_at) / Fold change /veh ABCC12 (11746883_a_at) / RFU TMEM136 (11760407_x_at) / Fold change /veh TMEM136 (11760407_x_at) / RFU CLDN22 /// WWC2 (11732394_at) / Fold change /veh CLDN22 /// WWC2 (11732394_at) / RFU HLA-DPB1 (11760878_x_at) / Fold change /veh HLA-DPB1 (11760878_x_at) / RFU SPINT1 (11716480_a_at) / Fold change /veh SPINT1 (11716480_a_at) / RFU GAP43 (11754022_s_at) / Fold change /veh GAP43 (11754022_s_at) / RFU A4GNT (11735810_at) / Fold change /veh A4GNT (11735810_at) / RFU PRB3 (11715151_x_at) / Fold change /veh PRB3 (11715151_x_at) / RFU TUBB4B (11761932_at) / Fold change /veh TUBB4B (11761932_at) / RFU CAPN14 (11732068_a_at) / Fold change /veh CAPN14 (11732068_a_at) / RFU TMCC2 (11721928_a_at) / Fold change /veh TMCC2 (11721928_a_at) / RFU IRGQ (11745062_a_at) / Fold change /veh IRGQ (11745062_a_at) / RFU FAM174B (11720279_a_at) / Fold change /veh FAM174B (11720279_a_at) / RFU TMPRSS4 (11748680_a_at) / Fold change /veh TMPRSS4 (11748680_a_at) / RFU FAM212B (11763350_a_at) / Fold change /veh FAM212B (11763350_a_at) / RFU PLEKHG5 (11743358_a_at) / Fold change /veh PLEKHG5 (11743358_a_at) / RFU ZSCAN30 (11745921_a_at) / Fold change /veh ZSCAN30 (11745921_a_at) / RFU CMKLR1 (11741424_a_at) / Fold change /veh CMKLR1 (11741424_a_at) / RFU LOC101060620 /// MAPK8IP1 (11723275_at) / Fold change /veh LOC101060620 /// MAPK8IP1 (11723275_at) / RFU SPTSSB (11747773_x_at) / Fold change /veh SPTSSB (11747773_x_at) / RFU PRSS12 (11739890_at) / Fold change /veh PRSS12 (11739890_at) / RFU BIN1 (11741810_x_at) / Fold change /veh BIN1 (11741810_x_at) / RFU WNT11 (11732464_a_at) / Fold change /veh WNT11 (11732464_a_at) / RFU C10orf10 (11716521_a_at) / Fold change /veh C10orf10 (11716521_a_at) / RFU C5orf56 (11738089_at) / Fold change /veh C5orf56 (11738089_at) / RFU CYB561 (11721691_x_at) / Fold change /veh CYB561 (11721691_x_at) / RFU ANKRD19P (11752326_a_at) / Fold change /veh ANKRD19P (11752326_a_at) / RFU OR2T12 /// OR2T33 /// OR2T8 (11738714_s_at) / Fold change /veh OR2T12 /// OR2T33 /// OR2T8 (11738714_s_at) / RFU VCAN (11748164_a_at) / Fold change /veh VCAN (11748164_a_at) / RFU JSRP1 (11732532_at) / Fold change /veh JSRP1 (11732532_at) / RFU KRTAP10-11 (11738290_x_at) / Fold change /veh KRTAP10-11 (11738290_x_at) / RFU MYO3A (11730013_a_at) / Fold change /veh MYO3A (11730013_a_at) / RFU EBF3 (11725865_a_at) / Fold change /veh EBF3 (11725865_a_at) / RFU CAMK2N1 (11719241_x_at) / Fold change /veh CAMK2N1 (11719241_x_at) / RFU C5orf56 (11738088_a_at) / Fold change /veh C5orf56 (11738088_a_at) / RFU OLFML3 (11715873_a_at) / Fold change /veh OLFML3 (11715873_a_at) / RFU LOC100653217 /// NTM (11731650_a_at) / Fold change /veh LOC100653217 /// NTM (11731650_a_at) / RFU MAPK11 (11762145_a_at) / Fold change /veh MAPK11 (11762145_a_at) / RFU FIZ1 (11724087_x_at) / Fold change /veh FIZ1 (11724087_x_at) / RFU OASL (11726364_x_at) / Fold change /veh OASL (11726364_x_at) / RFU SOX15 (11748057_x_at) / Fold change /veh SOX15 (11748057_x_at) / RFU CD79A (11719716_a_at) / Fold change /veh CD79A (11719716_a_at) / RFU HIST1H1D (11736915_at) / Fold change /veh HIST1H1D (11736915_at) / RFU CASKIN2 (11723855_a_at) / Fold change /veh CASKIN2 (11723855_a_at) / RFU LOC730098 (11760151_x_at) / Fold change /veh LOC730098 (11760151_x_at) / RFU OR4N2 (11742367_at) / Fold change /veh OR4N2 (11742367_at) / RFU PRRT2 (11749266_a_at) / Fold change /veh PRRT2 (11749266_a_at) / RFU SNX32 (11753110_a_at) / Fold change /veh SNX32 (11753110_a_at) / RFU CDHR5 (11726645_a_at) / Fold change /veh CDHR5 (11726645_a_at) / RFU RCAN1 (11760418_a_at) / Fold change /veh RCAN1 (11760418_a_at) / RFU FAM167A (11723789_a_at) / Fold change /veh FAM167A (11723789_a_at) / RFU FAM26E (11764081_at) / Fold change /veh FAM26E (11764081_at) / RFU ISYNA1 (11749810_s_at) / Fold change /veh ISYNA1 (11749810_s_at) / RFU ACY1 (11761880_at) / Fold change /veh ACY1 (11761880_at) / RFU 11764098_at / Fold change /veh 11764098_at / RFU SAMD14 (11745864_x_at) / Fold change /veh SAMD14 (11745864_x_at) / RFU NPB (11741838_a_at) / Fold change /veh NPB (11741838_a_at) / RFU TMPRSS6 (11731388_a_at) / Fold change /veh TMPRSS6 (11731388_a_at) / RFU KRTAP10-2 (11738614_at) / Fold change /veh KRTAP10-2 (11738614_at) / RFU ARHGAP8 /// PRR5-ARHGAP8 (11727945_x_at) / Fold change /veh ARHGAP8 /// PRR5-ARHGAP8 (11727945_x_at) / RFU KRTAP5-7 /// NADSYN1 (11734609_at) / Fold change /veh KRTAP5-7 /// NADSYN1 (11734609_at) / RFU RASL12 (11751679_a_at) / Fold change /veh RASL12 (11751679_a_at) / RFU CDKN2B (11736163_a_at) / Fold change /veh CDKN2B (11736163_a_at) / RFU PRF1 (11729649_at) / Fold change /veh PRF1 (11729649_at) / RFU, ZNF638 /// ZNF638-IT1 / Fold change vs veh, ZNF638 /// ZNF638-IT1 / RFU, PANK3 / Fold change vs veh, PANK3 / RFU, SH3YL1 / Fold change vs veh, SH3YL1 / RFU, ZEB2 / Fold change vs veh, ZEB2 / RFU, NRIP1 / Fold change vs veh, NRIP1 / RFU, PTTG1IP / Fold change vs veh, PTTG1IP / RFU, CAPN2 / Fold change vs veh, CAPN2 / RFU, MED14 / Fold change vs veh, MED14 / RFU, SNORA58 / Fold change vs veh, SNORA58 / RFU, C1orf63 / Fold change vs veh, C1orf63 / RFU, LRRFIP1 / Fold change vs veh, LRRFIP1 / RFU, NDUFAF7 / Fold change vs veh, NDUFAF7 / RFU, SLC12A2 / Fold change vs veh, SLC12A2 / RFU, IBTK / Fold change vs veh, IBTK / RFU, ESF1 / Fold change vs veh, ESF1 / Fold change vs veh, TMEM50B / RFU, TAOK1 / Fold change vs veh, TAOK1 / RFU, ACBD3 / Fold change vs veh, ACBD3 / RFU, TMA16 / Fold change vs veh, TMA16 / RFU, RWDD3 / Fold change vs veh, RWDD3 / RFU, BCAT1 / Fold change vs veh, BCAT1 / RFU, EDEM3 / Fold change vs veh, EDEM3 / RFU, TMEM33 / Fold change vs veh, TMEM33 / RFU, WDR75 / Fold change vs veh, WDR75 / RFU, AHCTF1 / Fold change vs veh, AHCTF1 / RFU, TFRC / Fold change vs veh, TFRC / RFU, ZDHHC17 / Fold change vs veh, ZDHHC17 / RFU, NOM1 / Fold change vs veh, NOM1 / RFU, ARL8B / Fold change vs veh, ARL8B / RFU, ZBTB11 / Fold change vs veh, ZBTB11 / RFU, TAMM41 / Fold change vs veh, TAMM41 / RFU, KIAA1704 /// LOC100996395 / Fold change vs veh, KIAA1704 /// LOC100996395 / RFU, ING1 / Fold change vs veh, ING1 / RFU, TRMT61B / Fold change vs veh, TRMT61B / RFU, FUBP3 / Fold change vs veh, FUBP3 / RFU, TP53 / Fold change vs veh, TP53 / RFU, TNKS2 / Fold change vs veh, TNKS2 / RFU, ZFP14 / Fold change vs veh, ZFP14 / RFU, ACTR2 / Fold change vs veh, ACTR2 / RFU, PPP3R1 / Fold change vs veh, PPP3R1 / RFU, PIK3R1 / Fold change vs veh, PIK3R1 / RFU, HNRNPA1 / Fold change vs veh, HNRNPA1 / RFU, RNF170 / Fold change vs veh, RNF170 / RFU, ZNF28 / Fold change vs veh, ZNF28 / RFU, RNGTT / Fold change vs veh, RNGTT / RFU, OGT / Fold change vs veh, OGT / RFU, BRD1 / Fold change vs veh, BRD1 / RFU, MARS / Fold change vs veh, MARS / RFU, ZNF655 / Fold change vs veh, ZNF655 / RFU, FAHD1 / Fold change vs veh, FAHD1 / RFU, BDP1 / Fold change vs veh, BDP1 / RFU, LRRCC1 / Fold change vs veh, LRRCC1 / RFU, ARID1A / Fold change vs veh, ARID1A / RFU, ZNF146 / Fold change vs veh, ZNF146 / RFU, ZNF330 / Fold change vs veh, ZNF330 / RFU, GPN3 / Fold change vs veh, GPN3 / RFU, C9orf123 / Fold change vs veh, C9orf123 / RFU, N4BP2L2 / Fold change vs veh, N4BP2L2 / RFU, ARFIP1 / Fold change vs veh, ARFIP1 / RFU, FAM179B / Fold change vs veh, FAM179B / RFU, BCL10 / Fold change vs veh, BCL10 / RFU, UHRF1BP1L / Fold change vs veh, UHRF1BP1L / RFU, BET1 / Fold change vs veh, BET1 / RFU, CNOT2 / Fold change vs veh, CNOT2 / RFU, ZNF268 / Fold change vs veh, ZNF268 / Fold change vs veh, ZNF507 / RFU, DGCR2 / Fold change vs veh, DGCR2 / RFU, WDSUB1 / Fold change vs veh, WDSUB1 / Fold change vs veh, HSP90B1 /// MIR3652 / RFU, ADSS / Fold change vs veh, ADSS / RFU, GK / Fold change vs veh, GK / RFU, ZNF148 / Fold change vs veh, ZNF148 / RFU, TAF9 / Fold change vs veh, TAF9 / RFU, SLC1A5 / Fold change vs veh, SLC1A5 / RFU, SLMO2 / Fold change vs veh, SLMO2 / RFU, ABCC4 / Fold change vs veh, ABCC4 / RFU, LOC101060439 /// RAP1B / Fold change vs veh, LOC101060439 /// RAP1B / RFU, RFX7 / Fold change vs veh, RFX7 / RFU, GTPBP10 / Fold change vs veh, GTPBP10 / RFU, CNEP1R1 / Fold change vs veh, CNEP1R1 / RFU, BIVM-ERCC5 /// ERCC5 / Fold change vs veh, BIVM-ERCC5 /// ERCC5 / RFU, ILF3 / Fold change vs veh, ILF3 / RFU 11762660_at / Fold change /veh 11762660_at / RFU VCAN (11757783_s_at) / Fold change /veh VCAN (11757783_s_at) / RFU DDX43 (11728927_at) / Fold change /veh DDX43 (11728927_at) / RFU KRT8 (11758188_x_at) / Fold change /veh KRT8 (11758188_x_at) / RFU NKD1 (11759106_at) / Fold change /veh NKD1 (11759106_at) / RFU SRD5A1 (11742802_a_at) / Fold change /veh SRD5A1 (11742802_a_at) / RFU TPSAB1 /// TPSB2 (11721975_s_at) / Fold change /veh TPSAB1 /// TPSB2 (11721975_s_at) / RFU GSTM3 (11746129_a_at) / Fold change /veh GSTM3 (11746129_a_at) / RFU IL23R (11737362_x_at) / Fold change /veh IL23R (11737362_x_at) / RFU TMEM51 (11727254_a_at) / Fold change /veh TMEM51 (11727254_a_at) / RFU PIWIL2 (11732686_x_at) / Fold change /veh PIWIL2 (11732686_x_at) / RFU ORM1 (11744905_x_at) / Fold change /veh ORM1 (11744905_x_at) / RFU CCDC152 (11743942_at) / Fold change /veh CCDC152 (11743942_at) / RFU ECM1 (11717891_a_at) / Fold change /veh ECM1 (11717891_a_at) / RFU IL23R (11748794_a_at) / Fold change /veh IL23R (11748794_a_at) / RFU TNFAIP8L3 (11732012_x_at) / Fold change /veh TNFAIP8L3 (11732012_x_at) / RFU MBOAT4 (11741988_at) / Fold change /veh MBOAT4 (11741988_at) / RFU 11764193_at / Fold change /veh 11764193_at / RFU TMEM53 (11763286_at) / Fold change /veh TMEM53 (11763286_at) / RFU MAGEB2 (11727129_at) / Fold change /veh MAGEB2 (11727129_at) / RFU TMEM200A (11744735_a_at) / Fold change /veh TMEM200A (11744735_a_at) / RFU CCDC152 (11751479_a_at) / Fold change /veh CCDC152 (11751479_a_at) / RFU FAM211A (11726209_a_at) / Fold change /veh FAM211A (11726209_a_at) / RFU RGS16 (11746705_a_at) / Fold change /veh RGS16 (11746705_a_at) / RFU VCAN (11755009_s_at) / Fold change /veh VCAN (11755009_s_at) / RFU RHOB (11743442_s_at) / Fold change /veh RHOB (11743442_s_at) / RFU RGS16 (11720943_a_at) / Fold change /veh RGS16 (11720943_a_at) / RFU RGS16 (11720944_at) / Fold change /veh RGS16 (11720944_at) / RFU, VPS4B / Fold change vs veh, VPS4B / RFU, CREB1 / Fold change vs veh, CREB1 / RFU, DNAJC13 / Fold change vs veh, DNAJC13 / RFU, GNAQ / Fold change vs veh, GNAQ / RFU, CDK5R1 / Fold change vs veh, CDK5R1 / RFU, ZRANB3 / Fold change vs veh, ZRANB3 / RFU, CUL4A / Fold change vs veh, CUL4A / RFU, CCNY / Fold change vs veh, CCNY / RFU, UFL1 / Fold change vs veh, UFL1 / RFU, COG3 / Fold change vs veh, COG3 / RFU, DIAPH2 / Fold change vs veh, DIAPH2 / RFU, SKA2 / Fold change vs veh, SKA2 / RFU, AFF3 / Fold change vs veh, AFF3 / RFU, LMF1 / Fold change vs veh, LMF1 / RFU, IPO11 / Fold change vs veh, IPO11 / RFU, DFFB / Fold change vs veh, DFFB / RFU, FOXP1 / Fold change vs veh, FOXP1 / RFU, CARD8 / Fold change vs veh, CARD8 / RFU, STRN3 / Fold change vs veh, STRN3 / RFU, ADK / Fold change vs veh, ADK / RFU, RASSF2 / Fold change vs veh, RASSF2 / RFU, WIPF1 / Fold change vs veh, WIPF1 / RFU, LARP1B / Fold change vs veh, LARP1B / RFU, RASA1 / Fold change vs veh, RASA1 / RFU, RB1 / Fold change vs veh, RB1 / RFU, PPFIA1 / Fold change vs veh, PPFIA1 / RFU, MAT2A / Fold change vs veh, MAT2A / RFU, CCT5 / Fold change vs veh, CCT5 / RFU, WDR92 / Fold change vs veh, WDR92 / RFU, CUX1 / Fold change vs veh, CUX1 / RFU, TTC7A / Fold change vs veh, TTC7A / RFU, TMEM135 / Fold change vs veh, TMEM135 / RFU, DEPTOR / Fold change vs veh, DEPTOR / RFU, CPM / Fold change vs veh, CPM / RFU, DNAJB6 / Fold change vs veh, DNAJB6 / RFU, CACNA2D3 / Fold change vs veh, CACNA2D3 / RFU, DTX4 / Fold change vs veh, DTX4 / RFU, TFCP2 / Fold change vs veh, TFCP2 / RFU, GMCL1 /// GMCL1P1 / Fold change vs veh, GMCL1 /// GMCL1P1 / RFU, AEBP2 / Fold change vs veh, AEBP2 / RFU, SNHG1 /// SNORD22 /// SNORD25 /// SNORD26 /// SNORD27 /// SNORD28 /// SNORD29 /// SNORD31 / Fold change vs veh, SNHG1 /// SNORD22 /// SNORD25 /// SNORD26 /// SNORD27 /// SNORD28 /// SNORD29 /// SNORD31 / Fold change (Aza/veh), C12orf56 (ProbeSet 11735607_a_at) / Fold change (ACY-1035/veh), C12orf56 (ProbeSet 11735607_a_at) / Fold change (Aza/veh), FGFR1OP (ProbeSet 11751329_s_at) / Fold change (ACY-1035/veh), FGFR1OP (ProbeSet 11751329_s_at) / Fold change (Aza/veh), VPS36 (ProbeSet 11739960_a_at) / Fold change (ACY-1035/veh), VPS36 (ProbeSet 11739960_a_at) / RFU SYPL1 (11715823_x_at) / Fold change /veh SYPL1 (11715823_x_at) / RFU IGFBP7 (11715501_s_at) / Fold change /veh IGFBP7 (11715501_s_at) / RFU REEP3 (11722064_at) / Fold change /veh REEP3 (11722064_at) / RFU IGLL1 (11728026_x_at) / Fold change /veh IGLL1 (11728026_x_at): dose or concentration left out as unconfirmed. The conditions noted are these: MV-4-11 cells, 48 hours.

For `Nc1ccc(-c2cccs2)cc1NC(=O)c1ccc2c(c1)cc(C1CC1)n2CCN1CCOCC1` [ACY-1035], the “RFU GIMAP4 (11747438_a_at)” value was found to be 6.21 RFU.
